Counter-ions that a name gives are not always drawn. One block for each molecule: values may come before it.
Assays:
[1] = Water solubility and hydrogel formation; type: physicochemical
Experimental: (§1) TFA-0 forms a hydrogel at concentrations >0.4 wt %, and this compound was not studied further. The other three TFAs are soluble to 5-10 wt % in aqueous media. Critical micelle concentrations (CMC) were determined by monitoring solubilization of a hydrophobic fluorescent dye, […] (Chattopadhyay et al., Anal. Biochem. 1984, 139, 408-412), and the hydrodynamic radii (Rh) of the micelles were determined via dynamic light scattering (DLS). Table 1 compares the data for TFAs with those for DDM, a conventional detergent that is very widely used for MP applications; DDM and the TFAs share maltose as their hydrophilic moieties. CMC values of the three TFAs are smaller than that of DDM, whether CMC is measured in units of mM or wt %.
Several amphiphiles (TFA 1a-10a) were prepared and evaluated for their water solubility and critical micelle concentration (CMC). […] Examples of these TFAs include compounds of Formula VI: […]
These TFAs can be used to prepare hydrogels, which can be used tissue engineering or drug delivery applications. Examples of the generally water-insoluble TFAs include compounds of Formula XX: […]
(§2) Analysis of these TFAs for their CMC values provided the data in Table 3.

[2] = Hydrodynamic radii of micelles by dynamic light scattering (DLS); type: physicochemical; conditions: 0.5 wt % amphiphile in water, 25° C.; mean ± SD, n = 3
Experimental: as §1
Each TFA and DDM was dissolved in distilled, deionized (DI) water to obtain 1 mL of a solution containing 0.5 wt % amphiphile. Each solution was filtered through a 0.02 μm filter for DLS measurements. A 100-mW, 532-nm laser (Compass 315M-100, Coherent, Santa Clara, Calif.) illuminated a temperature-controlled glass cell at 25° C. that was filled with a refractive-index matching fluid (decahydronaphthalene, Fisher Scientific, Pittsburgh, Pa.). The scattered light was collected at an angle of 90° for about 30 minutes. Rh values were determined using the integrated dynamics software that analyzes the time scale of the scattered light intensity fluctuations by an autocorrelation function. The autocorrelation functions (ACFs) were obtained using a BI-9000AT digital autocorrelator (Brookhaven Instruments, Holtsville, N.Y.). Measurements were repeated three times.

[3] = Critical micelle concentration by solubilization of a hydrophobic fluorescent dye; type: physicochemical
Text: The “Critical Micelle Concentration” (CMC) refers to the concentration of a detergent (e.g., an amphiphile as described herein) in an aqueous solution at which the detergent molecules self-assemble into micelles. Below the CMC, detergents are mostly monomeric; above the CMC, micelle concentration increases linearly with detergent concentration. The CMC is dependent upon many factors and is detergent-specific. The CMC of a detergent can be determined experimentally by measuring the solubilization of a water-insoluble dye or fluorophore while varying the concentration of detergent. A CMC may also be determined by measuring the diminution of the surface tension of an aqueous solution as a function of detergent concentration (CMCs determined by either method correlate with each other). The CMC is determined by extrapolating the plot of solubilization vs. concentration (or surface tension vs. concentration) in the two linear regions above and below the CMC. Where the two lines intersect is the CMC. The CMC can also be determined by the method of Nugebauer, J. M. (1990), Methods in Enzymology, 182:239-253.
as §1, §2

[4] = test system: leucine transporter (LeuT WT); experiment: LeuT functionality assay ([3H]-Leu binding by scintillation proximity assay); parameters: species or system Aquifex aeolicus; conditions: higher amphiphile concentration, CMC+0.2 wt %, room temperature
Text: The wild type of bacterial leucine transporter (LeuT WT) was examined because the functional state of this membrane protein is readily assessed by using a scintillation proximity assay (SPA) (Quick et al., Proc. Natl. Acad. Sci. USA 2007, 104, 3603-3608) to monitor binding of radiolabelled leucine. LeuT was initially extracted with DDM and then diluted with amphiphile-containing solutions to generate final TFA concentrations of 0.04 wt % or 0.2 wt % (residual DDM=0.005 wt %). Control samples had 0.05 wt % or 0.2 wt % DDM (overall, the final concentrations were CMC+0.04 wt % or CMC+0.2 wt %).
The wild type of the leucine transporter (LeuT WT) from Aquifex aeolicus was expressed in Escherichia coli essentially as described by Deckert et al. (Nature 392, 353-358 (1998)). The pET16b-LeuT WT-8His plasmid was kindly provided by Dr. Eric Gouaux, Vollum Institute, Portland Oreg. LeuT WT was extracted from isolated bacterial membranes solubilized with 1% DDM, bound to Ni^2+-affinity Chelating Sepharose Fast Flow resin (GE Healthcare, USA), and eluted in buffer consisted of 20 mM Tris-HCl (pH 8.0), 1 mM NaCl, 199 mM KCl, 0.05% DDM and 300 mM imidazole. […] After incubation at room temperature, at the indicated time points, samples were centrifuged and the protein concentration was determined by absorbance measurements at 280 nm. Concomitantly, [^3H]-Leu binding was determined using scintillation proximity assay (SPA) (Quick and Javitch, Proc. Natl. Acad. Sci. USA 104, 3603-3608 (2007)), with the reaction mixture consisted of 5 μL from the respective samples, 33.3 nM [^3H]-Leu (PerkinElmer, USA) and copper chelate (His-Tag) YSi beads (GE Healthcare). […] Normalized results are expressed as mean±SEM (n=2), as illustrated in FIG. 11 (long-term solubility of LeuT WT incubated in the presence of TFA-1, TFA-3, and DDM at (a) CMC+0.04 wt % or (b) CMC+0.2 wt % at room temperature).

concentration at which a hydrogel forms ([1]; in water): > 0.4 wt %
SMILES: C[C@H](CCC(=O)NCCCNC(=O)CC[C@@H](C)[C@H]1CC[C@H]2[C@@H]3CC[C@@H]4C[C@H](O[C@@H]5O[C@H](CO)[C@@H](O[C@H]6O[C@H](CO)[C@@H](O)[C@H](O)[C@H]6O)[C@H](O)[C@H]5O)CC[C@]4(C)[C@H]3C[C@H](O[C@@H]3O[C@H](CO)[C@@H](O[C@H]4O[C@H](CO)[C@@H](O)[C@H](O)[C@H]4O)[C@H](O)[C@H]3O)[C@]12C)[C@H]1CC[C@H]2[C@@H]3CC[C@@H]4C[C@H](O[C@@H]5O[C@H](CO)[C@@H](O[C@H]6O[C@H](CO)[C@@H](O)[C@H](O)[C@H]6O)[C@H](O)[C@H]5O)CC[C@]4(C)[C@H]3C[C@H](O[C@@H]3O[C@H](CO)[C@@H](O[C@H]4O[C@H](CO)[C@@H](O)[C@H](O)[C@H]4O)[C@H](O)[C@H]3O)[C@]12C [TFA-0]

maintaining LeuT WT function over 12 days [4]: matched DDM at the lower concentration | Rh (nm), hydrodynamic radius of micelles measured by dynamic light scattering [2]: 3.3 ± 0.12 nm | CMC ([3]; mean ± SD, n = 3): 0.007 ± 0.0023 mM | CMC (wt %) ([3]; mean ± SD, n = 3): 0.0016 ± 0.00051 wt %
SMILES: CCCCN(CCCN(CCCC)C(=O)CC[C@@H](C)[C@H]1CC[C@H]2[C@@H]3CC[C@@H]4C[C@H](O[C@@H]5O[C@H](CO)[C@@H](O[C@H]6O[C@H](CO)[C@@H](O)[C@H](O)[C@H]6O)[C@H](O)[C@H]5O)CC[C@]4(C)[C@H]3C[C@H](O[C@@H]3O[C@H](CO)[C@@H](O[C@H]4O[C@H](CO)[C@@H](O)[C@H](O)[C@H]4O)[C@H](O)[C@H]3O)[C@]12C)C(=O)CC[C@@H](C)[C@H]1CC[C@H]2[C@@H]3CC[C@@H]4C[C@H](O[C@@H]5O[C@H](CO)[C@@H](O[C@H]6O[C@H](CO)[C@@H](O)[C@H](O)[C@H]6O)[C@H](O)[C@H]5O)CC[C@]4(C)[C@H]3C[C@H](O[C@@H]3O[C@H](CO)[C@@H](O[C@H]4O[C@H](CO)[C@@H](O)[C@H](O)[C@H]4O)[C@H](O)[C@H]3O)[C@]12C [TFA-3]

water solubility ([1]; Example 4, under the conditions evaluated): insoluble
SMILES: CC(CCC(=O)NCc1ccc(CNC(=O)CCC(C)C2CCC3C4CCC5CC(OC6OC(CO)C(OC7OC(CO)C(O)C(O)C7O)C(O)C6O)CCC5(C)C4CC(OC4OC(CO)C(OC5OC(CO)C(O)C(O)C5O)C(O)C4O)C23C)cc1)C1CCC2C3CCC4CC(OC5OC(CO)C(OC6OC(CO)C(O)C(O)C6O)C(O)C5O)CCC4(C)C3CC(OC3OC(CO)C(OC4OC(CO)C(O)C(O)C4O)C(O)C3O)C12C (centres unmarked) [TFA-6a]

CMC ([3]; Example 4, Table 3): 0.004 mM | CMC (wt. %) ([3]; Example 4, Table 3): 0.0009 wt. %
SMILES: CCCCCN(CCCN(CCCCC)C(=O)CCC(C)C1CCC2C3CCC4CC(OC5OC(CO)C(OC6OC(CO)C(O)C(O)C6O)C(O)C5O)CCC4(C)C3CC(OC3OC(CO)C(OC4OC(CO)C(O)C(O)C4O)C(O)C3O)C12C)C(=O)CCC(C)C1CCC2C3CCC4CC(OC5OC(CO)C(OC6OC(CO)C(O)C(O)C6O)C(O)C5O)CCC4(C)C3CC(OC3OC(CO)C(OC4OC(CO)C(O)C(O)C4O)C(O)C3O)C12C (centres unmarked) [TFA-10a]

More lines, now with the values behind:

SMILES: CCN(CCCN(CC)C(=O)CC[C@@H](C)[C@H]1CC[C@H]2[C@@H]3CC[C@@H]4C[C@H](O[C@@H]5O[C@H](CO)[C@@H](O[C@H]6O[C@H](CO)[C@@H](O)[C@H](O)[C@H]6O)[C@H](O)[C@H]5O)CC[C@]4(C)[C@H]3C[C@H](O[C@@H]3O[C@H](CO)[C@@H](O[C@H]4O[C@H](CO)[C@@H](O)[C@H](O)[C@H]4O)[C@H](O)[C@H]3O)[C@]12C)C(=O)CC[C@@H](C)[C@H]1CC[C@H]2[C@@H]3CC[C@@H]4C[C@H](O[C@@H]5O[C@H](CO)[C@@H](O[C@H]6O[C@H](CO)[C@@H](O)[C@H](O)[C@H]6O)[C@H](O)[C@H]5O)CC[C@]4(C)[C@H]3C[C@H](O[C@@H]3O[C@H](CO)[C@@H](O[C@H]4O[C@H](CO)[C@@H](O)[C@H](O)[C@H]4O)[C@H](O)[C@H]3O)[C@]12C [TFA-2]
Rh (nm), hydrodynamic radius of micelles measured by dynamic light scattering [2]: 2.0 ± 0.03 nm | CMC ([3]; mean ± SD, n = 3): 0.013 ± 0.0018 mM | CMC (wt %) ([3]; mean ± SD, n = 3): 0.0028 ± 0.00039 wt %

SMILES: CC(CCC(=O)N(C)CCCN(C)C(=O)CCC(C)C1CCC2C3CCC4CC(OC5OC(CO)C(OC6OC(CO)C(O)C(O)C6O)C(O)C5O)CCC4(C)C3CC(OC3OC(CO)C(OC4OC(CO)C(O)C(O)C4O)C(O)C3O)C12C)C1CCC2C3CCC4CC(OC5OC(CO)C(OC6OC(CO)C(O)C(O)C6O)C(O)C5O)CCC4(C)C3CC(OC3OC(CO)C(OC4OC(CO)C(O)C(O)C4O)C(O)C3O)C12C (centres unmarked) [TFA-4a]
CMC ([3]; Example 4, Table 3): 0.014 mM | CMC (wt. %) ([3]; Example 4, Table 3): 0.0030 wt. %

SMILES: CCN(CCCN(CC)C(=O)CCC(C)C1CCC2C3CCC4CC(OC5OC(CO)C(OC6OC(CO)C(O)C(O)C6O)C(O)C5O)CCC4(C)C3CC(OC3OC(CO)C(OC4OC(CO)C(O)C(O)C4O)C(O)C3O)C12C)C(=O)CCC(C)C1CCC2C3CCC4CC(OC5OC(CO)C(OC6OC(CO)C(O)C(O)C6O)C(O)C5O)CCC4(C)C3CC(OC3OC(CO)C(OC4OC(CO)C(O)C(O)C4O)C(O)C3O)C12C (centres unmarked) [TFA-7a]
CMC ([3]; Example 4, Table 3): 0.013 mM | CMC (wt. %) ([3]; Example 4, Table 3): 0.0028 wt. %

SMILES: CCCCN(CCCN(CCCC)C(=O)CCC(C)C1CCC2C3CCC4CC(OC5OC(CO)C(OC6OC(CO)C(O)C(O)C6O)C(O)C5O)CCC4(C)C3CC(OC3OC(CO)C(OC4OC(CO)C(O)C(O)C4O)C(O)C3O)C12C)C(=O)CCC(C)C1CCC2C3CCC4CC(OC5OC(CO)C(OC6OC(CO)C(O)C(O)C6O)C(O)C5O)CCC4(C)C3CC(OC3OC(CO)C(OC4OC(CO)C(O)C(O)C4O)C(O)C3O)C12C (centres unmarked) [TFA-9a]
CMC ([3]; Example 4, Table 3): 0.01 mM | CMC (wt. %) ([3]; Example 4, Table 3): 0.0022 wt. %
